Measurements from patent US11053204B2, “Pyrimidinyloxy benzene derivatives as herbicides” (FMC Corporation, priority 2015, dated 2021).

How the values were obtained:
Assay type in all cases: in vivo
[1] = test system: barnyardgrass (Echinochloa crus-galli); assay: Test A postemergence, visual injury rating; conditions: Echinochloa crus-galli, post-emergence, 240 h, 0 is no effect, 100 is complete control, read-out: Barnyardgrass plant response rating (0 to 100 scale)
How it was run: (§1)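 Scoring: eye-based comparison with untreated controls, 0 for no effect through 100 for complete control, at about day 10. Treatments: directed soil spray preemergence; foliar spray postemergence on 2–10 cm plants at the one- to two-leaf stage. Medium: loam soil with sand.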

[2] = test system: blackgrass (Alopecurus myosuroides); assay: Test A postemergence, visual injury rating; conditions: Alopecurus myosuroides, post-emergence, 240 h, 0 is no effect, 100 is complete control, read-out: Blackgrass plant response rating (0 to 100 scale)
How it was run: as §1

[3] = test system: galium (catchweed bedstraw, Galium aparine); assay: Test A postemergence, visual injury rating; conditions: Galium, post-emergence, 240 h, 0 is no effect, 100 is complete control, read-out: Galium plant response rating (0 to 100 scale)
How it was run: as §1

[4] = test system: blackgrass (Alopecurus myosuroides); assay: Test C preemergence, plant response rating; conditions: Alopecurus myosuroides, pre-emergence, Preemergence
How it was run: (§2)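 Pre-emergence: seeds sown in loam soil–sand blend or silt loam and sprayed with test chemicals in a non-phytotoxic solvent mixture with surfactant. Post-emergence: plants 2 to 18 cm (1- to 4-leaf stage) in peat-based potting medium, same formulation. Greenhouse 13 to 15 d; visual rating 0 (no effect) to 100 (complete control) versus controls.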

corn (Zea mays) = assay: Test C preemergence, plant response rating; conditions: Zea mays, pre-emergence, Preemergence
How it was run: as §2

[5] = test system: crabgrass, large (large crabgrass, Digitaria sanguinalis); assay: Test C preemergence, plant response rating; conditions: Digitaria sanguinalis, pre-emergence, Preemergence
How it was run: as §2

[6] = test system: foxtail, giant (giant foxtail, Setaria faberii); assay: Test C preemergence, plant response rating; conditions: Setaria faberi, pre-emergence, Preemergence
How it was run: as §2

[7] = test system: lambsquarters (Chenopodium album); assay: Test C preemergence, plant response rating; conditions: Chenopodium album, pre-emergence, Preemergence
How it was run: as §2

[8] = test system: morningglory (Ipomoea coccinea); assay: Test C preemergence, plant response rating; conditions: Ipomoea, pre-emergence, Preemergence
How it was run: as §2

[9] = test system: nutsedge, yellow (yellow nutsedge, Cyperus esculentus); assay: Test C preemergence, plant response rating; conditions: Cyperus, pre-emergence, Preemergence
How it was run: as §2

[10] = test system: oilseed rape (Brassica napus); assay: Test C preemergence, plant response rating; conditions: Brassica napus, pre-emergence, Preemergence
How it was run: as §2

[11] = test system: ragweed (common ragweed, Ambrosia elatior); assay: Test C preemergence, plant response rating; conditions: Ambrosia artemisiifolia, pre-emergence, Preemergence
How it was run: as §2

[12] = test system: ryegrass, Italian (Italian ryegrass, Lolium multiflorum); assay: Test C preemergence, plant response rating; conditions: Lolium multiflorum, pre-emergence, Preemergence
How it was run: as §2

soybean (Glycine max) = assay: Test C preemergence, plant response rating; conditions: Glycine max, pre-emergence, Preemergence
How it was run: as §2

[13] = test system: velvetleaf (Abutilon theophrasti); assay: Test C preemergence, plant response rating; conditions: Abutilon theophrasti, pre-emergence, Preemergence
How it was run: as §2

[14] = test system: waterhemp (common waterhemp, Amaranthus rudis); assay: Test C preemergence, plant response rating; conditions: Amaranthus tuberculatus, pre-emergence, Preemergence
How it was run: as §2

[15] = test system: wheat (winter wheat, Triticum aestivum); assay: Test C preemergence, plant response rating; conditions: Triticum aestivum, pre-emergence, Preemergence
How it was run: as §2

C=CCCOC(=O)c1c(Br)cccc1Oc1ncc(Cl)cn1 [Compound 21, 3-buten-1-yl 2-bromo-6-[(5-chloro-2-pyrimidinyl)oxy]benzoate]
pest or weed control at 125 g/ha ([1]; 125 g ai/ha): 70% | pest or weed control at 500 g/ha ([1]; 500 g ai/ha): 100% | pest or weed control at 125 g/ha ([2]; 125 g ai/ha): 60% | pest or weed control at 500 g/ha ([2]; 500 g ai/ha): 80% | pest or weed control at 125 g/ha ([3]; 125 g ai/ha): 80% | pest or weed control at 500 g/ha ([3]; 500 g ai/ha): 90% | pest or weed control at 62 g/ha ([4]; 62 g ai/ha, scale of 0 to 100): 55% | pest or weed control at 125 g/ha ([4]; 125 g ai/ha, scale of 0 to 100): 90% | pest or weed control at 16 g/ha ([4]; 16 g ai/ha, scale 0 to 100): 5% | pest or weed control at 31 g/ha ([4]; 31 g ai/ha, scale 0 to 100): 35% | Corn plant response rating (crop injury, 0 = no effect, 100 = complete kill) at 62 g/ha (corn (Zea mays); 62 g ai/ha, scale of 0 to 100): 5% | Corn plant response rating (crop injury, 0 = no effect, 100 = complete kill) at 125 g/ha (corn (Zea mays); 125 g ai/ha, scale of 0 to 100): 20% | Corn plant response rating (crop injury, 0 = no effect, 100 = complete kill) at 16 g/ha (corn (Zea mays); 16 g ai/ha, scale 0 to 100): 0% | Corn plant response rating (crop injury, 0 = no effect, 100 = complete kill) at 31 g/ha (corn (Zea mays); 31 g ai/ha, scale 0 to 100): 0% | pest or weed control at 62 g/ha ([5]; 62 g ai/ha, scale of 0 to 100): 98% | pest or weed control at 125 g/ha ([5]; 125 g ai/ha, scale of 0 to 100): 100% | pest or weed control at 16 g/ha ([5]; 16 g ai/ha, scale 0 to 100): 20% | pest or weed control at 31 g/ha ([5]; 31 g ai/ha, scale 0 to 100): 75% | pest or weed control at 62 g/ha ([6]; 62 g ai/ha, scale of 0 to 100): 95% | pest or weed control at 125 g/ha ([6]; 125 g ai/ha, scale of 0 to 100): 90% | pest or weed control at 16 g/ha ([6]; 16 g ai/ha, scale 0 to 100): 20% | pest or weed control at 31 g/ha ([6]; 31 g ai/ha, scale 0 to 100): 80% | pest or weed control at 125 g/ha ([7]; 125 g ai/ha, scale of 0 to 100): 70% | pest or weed control at 16 g/ha ([7]; 16 g ai/ha, scale 0 to 100): 0% | pest or weed control at 31 g/ha ([7]; 31 g ai/ha, scale 0 to 100): 30% | pest or weed control at 62 g/ha ([7]; 62 g ai/ha, scale 0 to 100): 25% | pest or weed control at 125 g/ha ([8]; 125 g ai/ha, scale of 0 to 100): 10% | pest or weed control at 16 g/ha ([8]; 16 g ai/ha, scale 0 to 100): 0% | pest or weed control at 31 g/ha ([8]; 31 g ai/ha, scale 0 to 100): 0% | pest or weed control at 62 g/ha ([8]; 62 g ai/ha, scale 0 to 100): 5% | pest or weed control at 125 g/ha ([9]; 125 g ai/ha, scale of 0 to 100): 0% | pest or weed control at 16 g/ha ([9]; 16 g ai/ha, scale 0 to 100): 0% | pest or weed control at 31 g/ha ([9]; 31 g ai/ha, scale 0 to 100): 0% | pest or weed control at 62 g/ha ([9]; 62 g ai/ha, scale 0 to 100): 0% | plant injury at 125 g/ha ([10]; 125 g ai/ha, scale of 0 to 100): 100% | plant injury at 16 g/ha ([10]; 16 g ai/ha, scale 0 to 100): 0% | plant injury at 31 g/ha ([10]; 31 g ai/ha, scale 0 to 100): 0% | plant injury at 62 g/ha ([10]; 62 g ai/ha, scale 0 to 100): 75% | pest or weed control at 125 g/ha ([11]; 125 g ai/ha, scale of 0 to 100): 0% | pest or weed control at 16 g/ha ([11]; 16 g ai/ha, scale 0 to 100): 0% | pest or weed control at 31 g/ha ([11]; 31 g ai/ha, scale 0 to 100): 0% | pest or weed control at 62 g/ha ([11]; 62 g ai/ha, scale 0 to 100): 0% | pest or weed control at 125 g/ha ([12]; 125 g ai/ha, scale of 0 to 100): 90% | pest or weed control at 16 g/ha ([12]; 16 g ai/ha, scale 0 to 100): 0% | pest or weed control at 31 g/ha ([12]; 31 g ai/ha, scale 0 to 100): 10% | pest or weed control at 62 g/ha ([12]; 62 g ai/ha, scale 0 to 100): 15% | plant injury at 125 g/ha (soybean (Glycine max); 125 g ai/ha, scale of 0 to 100): 0% | plant injury at 16 g/ha (soybean (Glycine max); 16 g ai/ha, scale 0 to 100): 0% | plant injury at 31 g/ha (soybean (Glycine max); 31 g ai/ha, scale 0 to 100): 0% | plant injury at 62 g/ha (soybean (Glycine max); 62 g ai/ha, scale 0 to 100): 0% | pest or weed control at 125 g/ha ([13]; 125 g ai/ha, scale of 0 to 100): 100% | pest or weed control at 16 g/ha ([13]; 16 g ai/ha, scale 0 to 100): 10% | pest or weed control at 31 g/ha ([13]; 31 g ai/ha, scale 0 to 100): 40% | pest or weed control at 62 g/ha ([13]; 62 g ai/ha, scale 0 to 100): 70% | pest or weed control at 125 g/ha ([14]; 125 g ai/ha, scale of 0 to 100): 98% | pest or weed control at 16 g/ha ([14]; 16 g ai/ha, scale 0 to 100): 70% | pest or weed control at 31 g/ha ([14]; 31 g ai/ha, scale 0 to 100): 75% | pest or weed control at 62 g/ha ([14]; 62 g ai/ha, scale 0 to 100): 95% | plant injury at 125 g/ha ([15]; 125 g ai/ha, scale of 0 to 100): 0% | plant injury at 16 g/ha ([15]; 16 g ai/ha, scale 0 to 100): 0% | plant injury at 31 g/ha ([15]; 31 g ai/ha, scale 0 to 100): 0% | plant injury at 62 g/ha ([15]; 62 g ai/ha, scale 0 to 100): 0%
